Assay results published in ChEMBL document CHEMBL4715698, “Design and synthesis of novel selective anaplastic lymphoma kinase inhibitors” (Bioorg Med Chem Lett, 2016).
Converted amounts (≈) assume the structure as drawn. Blank lines part the entries; values can stand above or below the compound they belong to.

Columns and labels:
[1] = tested on: BaF3; test: Antiproliferative activity against wild type mouse BaF3 cells assessed as reduction in cell growth incubated for 2 to 3 days by Bright-Glo luciferase assay
[2] = Metabolic stability in human liver microsomes assessed as intrinsic clearance; assay type: ADME, Microsome; conditions: read-out: CLH
[3] = Metabolic stability in rat liver microsomes assessed as intrinsic clearance; assay type: ADME, Microsome; conditions: read-out: CLH
[4] = Permeability of compound by PAMPA assay; assay type: ADME
[5] = Solubility in DMSO at pH 6.8 by high-throughput solubility assay; assay type: physicochemical
[6] = target: Cytochrome P450 3A4 (Homo sapiens, UniProt P08684); test: Inhibition of CYP3A4 (unknown origin) using midazolam as substrate; assay type: ADME
Cytochrome P450 3A4, sequence (P08684 whole entry): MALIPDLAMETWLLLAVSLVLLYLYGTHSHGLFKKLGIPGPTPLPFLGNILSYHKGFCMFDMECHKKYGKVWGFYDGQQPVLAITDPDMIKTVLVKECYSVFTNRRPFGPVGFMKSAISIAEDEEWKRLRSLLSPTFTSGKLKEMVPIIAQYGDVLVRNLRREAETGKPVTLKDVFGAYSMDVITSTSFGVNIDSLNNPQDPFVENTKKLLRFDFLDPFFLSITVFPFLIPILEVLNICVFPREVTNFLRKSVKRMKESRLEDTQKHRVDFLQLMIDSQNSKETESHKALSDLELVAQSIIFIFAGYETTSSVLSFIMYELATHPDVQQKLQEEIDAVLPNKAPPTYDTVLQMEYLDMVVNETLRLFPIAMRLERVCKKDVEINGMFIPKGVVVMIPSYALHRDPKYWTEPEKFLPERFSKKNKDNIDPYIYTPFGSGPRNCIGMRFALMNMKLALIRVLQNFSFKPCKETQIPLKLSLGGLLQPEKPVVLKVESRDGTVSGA

[7] = target: Voltage-gated inwardly rectifying potassium channel KCNH2 (Homo sapiens, UniProt Q12809); test: Inhibition of human ERG by dofetilide binding assay
Voltage-gated inwardly rectifying potassium channel KCNH2, sequence (Q12809 whole entry): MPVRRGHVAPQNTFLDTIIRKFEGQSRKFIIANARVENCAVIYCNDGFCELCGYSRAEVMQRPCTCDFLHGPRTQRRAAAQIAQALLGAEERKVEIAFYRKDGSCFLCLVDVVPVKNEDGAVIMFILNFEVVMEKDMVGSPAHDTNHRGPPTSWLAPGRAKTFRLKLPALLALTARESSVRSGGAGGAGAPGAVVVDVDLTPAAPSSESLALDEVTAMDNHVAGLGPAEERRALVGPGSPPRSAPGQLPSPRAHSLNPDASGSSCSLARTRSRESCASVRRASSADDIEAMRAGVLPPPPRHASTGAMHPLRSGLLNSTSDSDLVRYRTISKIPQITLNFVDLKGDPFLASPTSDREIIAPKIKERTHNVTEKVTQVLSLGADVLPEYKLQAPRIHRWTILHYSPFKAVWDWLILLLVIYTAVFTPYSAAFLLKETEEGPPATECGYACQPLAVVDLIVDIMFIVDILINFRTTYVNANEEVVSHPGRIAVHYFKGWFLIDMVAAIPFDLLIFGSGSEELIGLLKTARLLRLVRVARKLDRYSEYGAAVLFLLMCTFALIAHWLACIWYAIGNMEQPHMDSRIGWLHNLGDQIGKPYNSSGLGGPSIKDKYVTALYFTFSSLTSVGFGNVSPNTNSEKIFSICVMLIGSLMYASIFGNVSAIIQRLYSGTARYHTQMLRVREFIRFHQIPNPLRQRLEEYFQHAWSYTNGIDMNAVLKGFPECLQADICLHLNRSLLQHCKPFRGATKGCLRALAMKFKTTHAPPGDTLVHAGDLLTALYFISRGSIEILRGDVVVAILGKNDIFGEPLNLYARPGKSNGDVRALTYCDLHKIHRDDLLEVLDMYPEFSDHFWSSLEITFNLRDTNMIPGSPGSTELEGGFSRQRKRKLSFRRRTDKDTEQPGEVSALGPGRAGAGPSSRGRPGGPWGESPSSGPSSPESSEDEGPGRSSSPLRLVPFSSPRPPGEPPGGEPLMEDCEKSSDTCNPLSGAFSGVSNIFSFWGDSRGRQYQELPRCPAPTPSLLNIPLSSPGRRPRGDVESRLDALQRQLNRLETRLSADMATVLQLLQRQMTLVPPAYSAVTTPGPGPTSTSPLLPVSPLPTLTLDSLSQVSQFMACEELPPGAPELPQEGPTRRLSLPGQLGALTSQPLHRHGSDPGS

[8] = Metabolic stability in mouse liver microsomes assessed as intrinsic clearance; assay type: ADME, Microsome; conditions: read-out: CLH
[9] = target: Fibroblast growth factor receptor 4 (Homo sapiens, UniProt P22455); test: Inhibition of FGFR4 (unknown origin)
[10] = target: Vascular endothelial growth factor receptor 2 (Homo sapiens, UniProt P35968); test: Inhibition of KDR (unknown origin)
[11] = target: Tyrosine-protein kinase Lck (Homo sapiens, UniProt P06239); test: Inhibition of LCK (unknown origin)
[12] = Inhibition of Aurora (unknown origin); parameters: species or system Homo sapiens
[13] = Cmax in rat at 10 mg/kg, po; assay type: ADME, organism-based; parameters: route oral, dose 10 mg/kg; conditions: in vivo
[14] = target: Non-receptor tyrosine-protein kinase TYK2 (Homo sapiens, UniProt P29597); test: Inhibition of TYK2 (unknown origin)
[15] = tested on: KARPAS-299; test: Antitumor activity against human KARPAS-299 cells harboring NMP-ALK xenografted in SCID mouse assessed as tumor shrinkage by measuring T/C ratio at 25 mg/kg administered for 9 days and measured on day 9 (reference value: 100 %); assay type: functional; conditions: time 9 day
[16] = AUC in mouse at 20 mg/kg, po; assay type: ADME, organism-based; parameters: dose 20 mg/kg; conditions: in vivo
[17] = Volume of distribution at steady state in mouse at 5 mg/kg, iv; assay type: ADME, organism-based; conditions: in vivo, read-out: Vdss
[18] = target: Tyrosine-protein kinase JAK3 (Homo sapiens, UniProt P52333); test: Inhibition of JAK3 (unknown origin)
[19] = target: Epidermal growth factor receptor (Homo sapiens, UniProt P00533); test: Inhibition of HER1 (unknown origin)
[20] = target: Tyrosine-protein kinase JAK1 (Homo sapiens, UniProt P23458); test: Inhibition of JAK1 (unknown origin)
[21] = target: Hepatocyte growth factor receptor (Homo sapiens, UniProt P08581); test: Inhibition of MET (unknown origin)
[22] = target: Insulin-like growth factor 1 receptor (Homo sapiens, UniProt P08069); test: Inhibition of IGF-1R (unknown origin)
[23] = target: Tyrosine-protein kinase BTK (Homo sapiens, UniProt Q06187); test: Inhibition of BTK (unknown origin)
[24] = target: Receptor tyrosine-protein kinase erbB-2 (Homo sapiens, UniProt P04626); test: Inhibition of HER2 (unknown origin)
[25] = target: EML4-ALK (Homo sapiens, UniProt Q9UM73); test: Inhibition EML4-ALK (unknown origin); assay type: protein assay
[26] = target: Mast/stem cell growth factor receptor Kit (Homo sapiens, UniProt P10721); test: Inhibition of c-KIT (unknown origin)
[27] = tested on: KARPAS-299; test: Antitumor activity against human KARPAS-299 cells harboring NMP-ALK xenografted in SCID mouse assessed as tumor regression administered for 9 days and measured on day 9; assay type: functional; conditions: time 9.0 day
[28] = target: Ephrin type-A receptor 4 (Homo sapiens, UniProt P54764); test: Inhibition of EphA4 (unknown origin)
[29] = AUC in rat at 10 mg/kg, po; assay type: ADME, organism-based; parameters: dose 10 mg/kg; conditions: in vivo
[30] = Cmax in mouse at 20 mg/kg, po; assay type: ADME, organism-based; parameters: route oral, dose 20 mg/kg; conditions: in vivo
[31] = target: Tyrosine-protein kinase SYK (Homo sapiens, UniProt P43405); test: Inhibition of SYK (unknown origin)
[32] = target: Proto-oncogene tyrosine-protein kinase receptor Ret (Homo sapiens, UniProt P07949); test: Inhibition of RET (unknown origin)
[33] = tested on: KARPAS-299; test: Antitumor activity against human KARPAS-299 cells harboring NMP-ALK xenografted in SCID mouse assessed as tumor regression by measuring T/C ratio at 50 mg/kg administered for 9 days and measured on day 9 (reference value: 100 %); assay type: functional; conditions: time 9 day
[34] = target: Serine/threonine-protein kinase PLK1 (Homo sapiens, UniProt P53350); test: Inhibition of PLK1 (unknown origin)
[35] = Toxicity in SCID mouse xenografted with human KARPAS-299 cells harboring NMP-ALK assessed as reduction in body weight at 25 to 50 mg/kg administered for 9 days and measured on day 9; assay type: organism-based; conditions: in vivo, 216 h, dose 25-50 mg/kg, time 9 day
[36] = target: Ephrin type-B receptor 4 (Homo sapiens, UniProt P54760); test: Inhibition of EphB4 (unknown origin)
[37] = target: RAC-alpha serine/threonine-protein kinase (Homo sapiens, UniProt P31749); test: Inhibition of AKT (unknown origin)
[38] = target: Mitogen-activated protein kinase 1 (Homo sapiens, UniProt P28482); test: Inhibition of MAPK1 (unknown origin)
[39] = Oral bioavailability in rat at 10 mg/kg; assay type: ADME, organism-based; conditions: in vivo
[40] = Clearance in rat at 3 mg/kg, iv; assay type: ADME, organism-based; conditions: in vivo
[41] = target: Cyclin-dependent kinase 2 (Homo sapiens, UniProt P24941); test: Inhibition of CDK2 (unknown origin)
[42] = target: ALK tyrosine kinase receptor (Homo sapiens, UniProt Q9UM73); test: Inhibition of ALK (unknown origin)
ALK tyrosine kinase receptor, sequence (Q9UM73 whole entry): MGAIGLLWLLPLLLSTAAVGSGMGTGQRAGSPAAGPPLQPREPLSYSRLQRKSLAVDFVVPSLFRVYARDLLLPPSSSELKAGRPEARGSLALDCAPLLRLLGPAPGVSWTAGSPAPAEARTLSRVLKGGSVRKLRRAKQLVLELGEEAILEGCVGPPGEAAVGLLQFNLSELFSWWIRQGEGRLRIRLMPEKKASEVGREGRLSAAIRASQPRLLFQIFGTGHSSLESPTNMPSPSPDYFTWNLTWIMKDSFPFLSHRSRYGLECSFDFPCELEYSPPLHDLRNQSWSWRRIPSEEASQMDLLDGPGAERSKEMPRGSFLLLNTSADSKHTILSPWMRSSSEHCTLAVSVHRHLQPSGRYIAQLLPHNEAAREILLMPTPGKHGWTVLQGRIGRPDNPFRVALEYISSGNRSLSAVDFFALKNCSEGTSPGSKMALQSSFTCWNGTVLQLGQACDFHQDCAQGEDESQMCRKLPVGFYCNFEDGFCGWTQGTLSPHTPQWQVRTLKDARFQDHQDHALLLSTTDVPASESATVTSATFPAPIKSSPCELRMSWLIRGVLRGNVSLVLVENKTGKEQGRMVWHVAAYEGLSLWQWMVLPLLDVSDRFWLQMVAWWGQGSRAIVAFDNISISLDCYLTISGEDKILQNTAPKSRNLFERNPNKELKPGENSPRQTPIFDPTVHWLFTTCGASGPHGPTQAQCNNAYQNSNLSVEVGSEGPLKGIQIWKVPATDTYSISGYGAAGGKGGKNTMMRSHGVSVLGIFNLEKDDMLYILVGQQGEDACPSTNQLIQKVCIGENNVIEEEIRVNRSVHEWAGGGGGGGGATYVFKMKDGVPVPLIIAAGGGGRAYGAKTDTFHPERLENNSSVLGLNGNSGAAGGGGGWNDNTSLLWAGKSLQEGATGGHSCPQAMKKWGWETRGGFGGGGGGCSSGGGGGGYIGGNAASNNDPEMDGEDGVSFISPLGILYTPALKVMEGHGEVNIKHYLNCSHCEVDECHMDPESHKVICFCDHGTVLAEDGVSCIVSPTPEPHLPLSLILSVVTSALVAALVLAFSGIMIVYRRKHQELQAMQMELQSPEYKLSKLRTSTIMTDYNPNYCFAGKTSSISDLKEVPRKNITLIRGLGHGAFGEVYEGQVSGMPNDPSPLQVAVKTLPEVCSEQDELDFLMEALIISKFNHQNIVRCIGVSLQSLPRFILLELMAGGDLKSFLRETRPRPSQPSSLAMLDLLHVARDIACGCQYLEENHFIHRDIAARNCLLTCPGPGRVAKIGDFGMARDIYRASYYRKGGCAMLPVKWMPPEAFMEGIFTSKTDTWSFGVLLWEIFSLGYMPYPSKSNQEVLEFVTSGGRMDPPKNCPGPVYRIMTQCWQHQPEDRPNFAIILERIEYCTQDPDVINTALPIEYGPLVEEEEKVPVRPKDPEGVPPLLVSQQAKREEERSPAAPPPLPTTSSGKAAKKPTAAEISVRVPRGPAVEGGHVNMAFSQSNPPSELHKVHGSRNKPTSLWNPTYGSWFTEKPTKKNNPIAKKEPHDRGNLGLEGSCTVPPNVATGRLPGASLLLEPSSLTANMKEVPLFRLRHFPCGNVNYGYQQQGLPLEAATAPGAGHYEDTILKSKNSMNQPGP

[43] = Clearance in mouse at 5 mg/kg, iv; assay type: ADME, organism-based; conditions: in vivo
[44] = target: Platelet-derived growth factor receptor alpha (Homo sapiens, UniProt P16234); test: Inhibition of PDGFRalpha (unknown origin)
[45] = target: Fibroblast growth factor receptor 3 (Homo sapiens, UniProt P22607); test: Inhibition of FGFR3 (unknown origin)
[46] = Volume of distribution at steady state in rat at 3 mg/kg, iv; assay type: ADME, organism-based; conditions: in vivo, read-out: Vdss
[47] = target: Tyrosine-protein kinase ABL1 (Homo sapiens, UniProt P00519); test: Inhibition of ABL (unknown origin)
[48] = target: Glycogen synthase kinase-3 beta (Homo sapiens, UniProt P49841); test: Inhibition of GSK3beta (unknown origin)
Glycogen synthase kinase-3 beta, sequence (P49841 whole entry): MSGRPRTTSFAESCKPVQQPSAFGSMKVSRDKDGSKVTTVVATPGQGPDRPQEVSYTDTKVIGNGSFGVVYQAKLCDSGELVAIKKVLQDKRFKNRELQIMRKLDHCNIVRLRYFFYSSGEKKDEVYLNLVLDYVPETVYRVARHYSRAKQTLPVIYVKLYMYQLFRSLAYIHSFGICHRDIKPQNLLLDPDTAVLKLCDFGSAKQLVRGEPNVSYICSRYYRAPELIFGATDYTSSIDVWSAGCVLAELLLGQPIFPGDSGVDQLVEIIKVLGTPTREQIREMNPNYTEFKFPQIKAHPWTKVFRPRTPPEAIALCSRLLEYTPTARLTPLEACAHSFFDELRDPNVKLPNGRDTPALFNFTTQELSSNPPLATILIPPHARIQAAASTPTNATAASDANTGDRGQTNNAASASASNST

[49] = Oral bioavailability in mouse at 20 mg/kg; assay type: ADME, organism-based; conditions: in vivo
[50] = target: Tyrosine-protein kinase JAK2 (Homo sapiens, UniProt O60674); test: Inhibition of JAK2 (unknown origin)
Tyrosine-protein kinase JAK2, sequence (O60674 whole entry): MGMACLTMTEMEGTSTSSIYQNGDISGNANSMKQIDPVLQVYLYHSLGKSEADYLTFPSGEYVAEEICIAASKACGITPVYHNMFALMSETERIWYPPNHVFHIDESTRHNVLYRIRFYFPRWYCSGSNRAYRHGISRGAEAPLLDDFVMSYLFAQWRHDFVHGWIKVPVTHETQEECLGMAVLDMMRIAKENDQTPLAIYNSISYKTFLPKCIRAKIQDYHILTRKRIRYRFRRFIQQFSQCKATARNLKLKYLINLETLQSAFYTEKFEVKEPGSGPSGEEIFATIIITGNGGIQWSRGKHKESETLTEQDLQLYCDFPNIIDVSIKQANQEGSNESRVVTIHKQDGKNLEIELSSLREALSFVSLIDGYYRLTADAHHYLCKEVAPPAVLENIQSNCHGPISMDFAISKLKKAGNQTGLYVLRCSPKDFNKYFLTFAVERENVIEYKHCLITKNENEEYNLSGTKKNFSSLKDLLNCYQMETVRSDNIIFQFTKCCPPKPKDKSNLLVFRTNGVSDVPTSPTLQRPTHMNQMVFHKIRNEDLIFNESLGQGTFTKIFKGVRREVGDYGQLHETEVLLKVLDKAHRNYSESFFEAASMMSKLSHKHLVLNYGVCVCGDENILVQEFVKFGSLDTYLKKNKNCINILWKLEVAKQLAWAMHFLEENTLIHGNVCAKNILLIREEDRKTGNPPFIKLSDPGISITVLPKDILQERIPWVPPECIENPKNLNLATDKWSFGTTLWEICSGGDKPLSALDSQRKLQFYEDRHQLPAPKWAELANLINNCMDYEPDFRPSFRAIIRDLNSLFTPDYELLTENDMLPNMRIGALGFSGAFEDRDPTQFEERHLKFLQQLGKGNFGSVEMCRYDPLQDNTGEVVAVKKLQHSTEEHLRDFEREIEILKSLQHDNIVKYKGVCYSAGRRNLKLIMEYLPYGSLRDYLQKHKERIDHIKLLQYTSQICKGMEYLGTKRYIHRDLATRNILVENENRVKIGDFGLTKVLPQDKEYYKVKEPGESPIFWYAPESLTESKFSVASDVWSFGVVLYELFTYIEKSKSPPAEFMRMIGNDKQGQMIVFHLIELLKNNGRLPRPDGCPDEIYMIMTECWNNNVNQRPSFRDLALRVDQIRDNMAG

[51] = target: NPM/ALK (Nucleophosmin/ALK tyrosine kinase receptor) (Homo sapiens, UniProt Q9UM73); test: Inhibition NMP-ALK (unknown origin); assay type: protein assay

IC50 [1]: 4.5 µM
Structure (SMILES): Cc1cc(Nc2nc(Nc3ccccc3S(=O)(=O)C(C)C)c3c(N)n[nH]c3n2)c(OC(C)C)cc1C1CCN(C)CC1

IC50 [1]: 2.03 µM
Structure (SMILES): Cc1cc(NC2=NC3NCCCC3C(Nc3ccccc3S(=O)(=O)C(C)C)=N2)c(OC(C)C)cc1C1CCNCC1 (configuration not stated)

IC50 [1]: > 10 µM
Structure (SMILES): Cc1cc(Nc2nc(Nc3ccccc3S(=O)(=O)C(C)C)c3[nH]nnc3n2)c(OC(C)C)cc1C1CCN(C)CC1

IC50 [1]: 7.23 µM
Structure (SMILES): Cc1cc(Nc2nc(Nc3ccccc3S(=O)(=O)C(C)C)c3cccnc3n2)c(OC(C)C)cc1C1CCNCC1

IC50 [1]: 5.12 µM | microsomal CLint [2]: 32 µL/min/mg | microsomal CLint [3]: 30 µL/min/mg | log(permeability) [4]: -4.1 | solubility [5]: > 175 µM | IC50 [6]: 3.3 µM | microsomal CLint [8]: 37 µL/min/mg
Structure (SMILES): Cc1cc(Nc2nc(Nc3ccccc3S(=O)(=O)C(C)C)c3cn[nH]c3n2)c(OC(C)C)cc1C1CCN(C)CC1
IC50 [7]: 1 µM

IC50 [9]: > 10 µM | IC50 [1]: 2.51 µM | IC50 [10]: 7.4 µM | microsomal CLint [2]: 19 µL/min/mg | IC50 [11]: 4.3 µM | IC50 [12]: > 10 µM | Cmax [13]: 151 nM | IC50 [14]: > 10 µM | AUC [16]: 4.9 µM·h | microsomal CLint [3]: 33 µL/min/mg | Vd [17]: 12.1 L/kg | log(permeability) [4]: -4.9 | IC50 [18]: > 10 µM | IC50 [19]: 0.96 µM | IC50 [20]: > 10 µM | IC50 [21]: 8.1 µM | IC50 [22]: 0.47 µM | IC50 [23]: 9.4 µM | solubility [5]: 114 µM (≈ 67.5 µg/mL) | IC50 [24]: 7.8 µM | IC50 [25]: 0.01 µM | IC50 [26]: > 10 µM | IC50 [28]: > 10 µM | AUC [29]: 3.07 µM·h | Cmax [30]: 429 nM | IC50 [31]: > 10 µM | IC50 [32]: 3.6 µM | IC50 [6]: > 25 µM | IC50 [34]: 3.9 µM | IC50 [36]: 2.9 µM | IC50 [37]: 7.6 µM | IC50 [38]: > 10 µM | bioavailability [39]: 35% | clearance [40]: 32 mL/min/kg | IC50 [41]: 0.92 µM | IC50 [42]: 0.004 µM | clearance [43]: 71 mL/min/kg | microsomal CLint [8]: 13 µL/min/mg | IC50 [44]: 9.7 µM | IC50 [45]: > 10 µM | Vd [46]: 19.4 L/kg | IC50 [47]: 1.4 µM | IC50 [48]: 4.3 µM | bioavailability [49]: 58% | IC50 [50]: > 10 µM | IC50 [51]: 0.03 µM
Structure (SMILES): Cc1cc(Nc2nc(Nc3ccccc3S(=O)(=O)C(C)C)c3c(C)[nH]nc3n2)c(OC(C)C)cc1C1CCN(C)CC1
T/C [15]: 37% | Activity [27]: Dose-dependent effect | T/C [33]: -54% | Activity [35]: Non-Toxic | IC50 [7]: 20.8 µM

IC50 [1]: 2.6 µM
Structure (SMILES): Cc1cc(Nc2cc(Nc3ccccc3S(=O)(=O)C(C)C)nc3[nH]ccc23)c(OC(C)C)cc1C1CCN(C)CC1

IC50 [1]: 3.94 µM
Structure (SMILES): COc1ccc2nc(Nc3cc(C)c(C4CCN(C)CC4)cc3OC(C)C)nc(Nc3ccccc3S(=O)(=O)C(C)C)c2c1

IC50 [1]: 3.42 µM | microsomal CLint [2]: 25 µL/min/mg | Cmax [13]: 291 nM | AUC [16]: 5.98 µM·h | microsomal CLint [3]: 34 µL/min/mg | Vd [17]: 10.8 L/kg | log(permeability) [4]: < -3.3 | solubility [5]: 10.4 µM (≈ 6 µg/mL) | AUC [29]: 7.19 µM·h | Cmax [30]: 425 nM | IC50 [6]: 4.5 µM | bioavailability [39]: 35% | clearance [40]: 15 mL/min/kg | clearance [43]: 58 mL/min/kg | microsomal CLint [8]: 62 µL/min/mg | Vd [46]: 13.7 L/kg | bioavailability [49]: 59%
Structure (SMILES): Cc1cc(Nc2nc(Nc3ccccc3S(=O)(=O)C(C)C)c3cc[nH]c3n2)c(OC(C)C)cc1C1CCN(C)CC1
IC50 [7]: 1.7 µM

IC50 [1]: 6.22 µM
Structure (SMILES): Cc1cc(Nc2nc(Nc3ccccc3S(=O)(=O)C(C)C)c3cn[nH]c3n2)c(OC(C)C)cc1C1CCNCC1

IC50 [1]: 5.41 µM
Structure (SMILES): Cc1cc2c(Nc3ccccc3S(=O)(=O)C(C)C)nc(Nc3cc(C)c(C4CCNCC4)cc3OC(C)C)nc2[nH]1

IC50 [1]: 3.24 µM
Structure (SMILES): Cc1cc(Nc2nc(Nc3ccccc3S(=O)(=O)C(C)C)c3ccccc3n2)c(OC(C)C)cc1C1CCN(C)CC1

IC50 [1]: 2.22 µM | microsomal CLint [2]: 22 µL/min/mg | AUC [16]: 0.406 µM·h | microsomal CLint [3]: 14 µL/min/mg | Vd [17]: 7.3 L/kg | log(permeability) [4]: -5.7 | solubility [5]: 8.1 µM (≈ 4.56 µg/mL) | Cmax [30]: 51 nM | IC50 [6]: 4.6 µM | clearance [43]: 40 mL/min/kg | microsomal CLint [8]: 15 µL/min/mg | bioavailability [49]: 3%
Structure (SMILES): Cc1cc(Nc2nc(Nc3ccccc3S(=O)(=O)C(C)C)c3cc[nH]c3n2)c(OC(C)C)cc1C1CCNCC1

IC50 [1]: 5.73 µM
Structure (SMILES): Cc1cc2c(Nc3ccccc3S(=O)(=O)C(C)C)nc(Nc3cc(C)c(C4CCN(C)CC4)cc3OC(C)C)nc2[nH]1

IC50 [1]: 5.54 µM
Structure (SMILES): Cc1cc(Nc2nc(Nc3ccccc3S(=O)(=O)C(C)C)c3c(C)n[nH]c3n2)c(OC(C)C)cc1C1CCNCC1

IC50 [1]: 4.91 µM | IC50 [42]: > 25 µM
Structure (SMILES): Cc1cc(Nc2cc(Nc3ccccc3S(=O)(=O)C(C)C)c3cc[nH]c3n2)c(OC(C)C)cc1C1CCN(C)CC1
